# Experimental data from patent publication US20070293517A1, “Derivatives Of Chemotherapeutic Agents With A Formaldehyde Releasing Moiety” (RAMOT AT TEL AVIV UNIVERSITY LTD., priority 2004, published 2007).
# Key:
# [1] = test system: sensitive and resistant uterine cancer cells (MES-SA, MES-SA DXS); assay: Proliferation/survival, sensitive and resistant uterine cancer cells (both lines); type: cell-based, human
# Text: (§1) Cells: The human breast cancer cell lines MCF-7 and MCF-7 DX, were obtained from Dr. R. Supino (Laboratorio Oncologia, Milano, Italy); the murine 3LLD122 highly metastatic Lewis lung carcinoma cell line was obtained from Dr. Eisenbach L, the Weizmann Inst., Israel. The following cell lines were purchased from the ATCC, USA: CT-26, an N-nitroso-N-methylurethane-(NNMU) induced murine (BALB-C) colon carcinoma; Panc02, a mouse (C57/Bl) pancreas adenocarcinoma; HT-49, a human colorectal adenocarcinoma; LS1034, a multidrug resistant human colorectal carcinoma; BxPC-3 human pancreas adenocarcinoma; MES-SA and MES-SA-DXS, human uterine sarcoma sensitive and multidrug resistant, respectively; and Human prostate carcinoma 22RV1, a subclone of CWR22 cells.
# (§2) Proliferation assay: cells at a density of 3-5×10^4 cells/ml in 200 μl medium supplemented with 10% FCS were seeded in tissue culture 96-well plates for 24 hours, and were then exposed for 72 hours to a novel derivative of a chemotherapeutic agent (in quadruplicate) as specified. After 3 days, the cells were rinsed with PBS, and fixed with ethanol (70%) for 30 minutes. The ethanol was thereafter discarded, 200 μl of 10 μg/ml HOECHST fluorescent dye (Sigma) solubilized in PBS were added and the fluorescence was measured at 390-460 nm with a FluoStar fluorometer. MTT solution (10 ml of 5 mg/ml MTT (Sigma) in PBS) was added, and the plate was incubated for 3 hours. Formazan crystals were dissolved with 140 ml of 0.04 HCl-isopropanol. The optical density of the wells was measured with a microplate reader at 540 nm.
# (§3) IC50 and IC90 values were determined from the best-fitted curve where the percentages of survival were 50 or 90 respectively.
# [2] = test system: MES SA DXS; assay: Proliferation assay, MES SA DXS cells; type: cell-based, human; conditions: MES SA DXS
# Text: as §1
# (§4) The cells were maintained in DMEM growth medium supplemented with 10% heat inactivated fetal calf serum, 2 mM glutamine, penicillin (250 units/ml) and streptomycin (125 μg/ml) in a humidified 5% CO2/air atmosphere at 37° C.
# as §2, §3
# [3] = test system: histone acetylation; assay: Histone acetylation in treated cells; type: cell-based
# Method: Western blot analysis: Whole cell tissue lysates or acid extracted histones were solubilized in a 4-fold concentrated sample buffer and […] protein samples were separated by SDS-PAGE. The proteins were transferred to a nitrocellulose membrane (Schleicher & Schuell, Germany) and probed with the primary antibodies as indicated, followed by incubation with an HRP-goat anti-rabbit IgG secondary antibody. Visualization of the bound HRP-goat anti-rabbit IgG was performed using the enhanced chemiluminescence that was done using Western Blotting Luminol reagent (cat No. SC-2048, Santa Cruz, Calif., US). Equal amounts of reagent A and B were mixed, and added to the nitrocellulose membrane for 1 minute. Excess liquid was absorbed and the membrane was exposed for 5 minutes to Chemiluminescence BioMax light film (cat. No. 868 9358, Kodak, USA). The intensity of the bands was measured with a Versa Doc instrument with Quantityl program (Bio-Rad, USA). The fold increase of each specific protein was determined by the ratio of band intensities of treated and untreated cells, normalized to loading control (actin or histone H3).
# [4] = test system: colon cancer cells (LS-1034 and HT-29); assay: Survival of colon cancer cells (both lines); type: cell-based, human
# Method: (§5) Cells: The human breast cancer cell lines MCF-7 and MCF-7 DX, were obtained from Dr. R. Supino (Laboratorio Oncologia, Milano, Italy); the murine 3LLD122 highly metastatic Lewis lung carcinoma cell line was obtained from Dr. Eisenbach L, the Weizmann Inst., Israel. […]
# as §2, with “After 3 days, the cells were rinsed with PBS, and fixed with ethanol (70%) for 30 minutes.” left out, “MTT solution (10 ml of 5 mg/ml MTT (Sigma) in PBS) was added, and the plate was incubated for 3 hours. Formazan crystals were dissolved with 140 ml of 0.04 HCl-isopropanol.” left out
# as §3
# [5] = test system: Panc 02; assay: Proliferation assay, Panc 02 cells; type: cell-based; conditions: Mus musculus, Panc02
# Text: as §1, §4, §2, §3
# [6] = test system: various cell lines; assay: Dose response studies in various cell lines, absence and presence of semicarbazide; type: cell-based; conditions: semicarbazide 0.5 mM
# Method: as §2
# Semicarbazide sensitive amine oxidase is a source of formaldehyde and is therefore a marker for the effect of formaldehyde. It has been shown that semicarbazide traps formaldehyde and reduces its concentration inside the cell (Nudelman et al. J. Med. Chem., 2005, 48, 1047-1054). Thus, the critical role of formaldehyde can be confirmed by reversal of formaldehyde-mediated effects by the addition of semicarbazide.
# Tables 3 and 4 below, as well as FIGS. 7A, 7B and 8A-8D present the dose response studies performed with various cell lines in the absence and presence of semicarbazide, the formaldehyde trapping agent.
# [7] = test system: colon carcinoma cells; assay: Viability of colon carcinoma cells (FIG. 12); type: cell-based
# Method: as §2
# (§6) Apoptosis assay: Cells (2×10^5 cells/ml) were seeded in 24-well plates and incubated with a derivative of a chemotherapeutic agent according to the present embodiments, as specified, for 24 hours. The cells were thereafter collected and double-stained with annexin V-FITC and propidium iodide, according to the manufacturer's instructions (MBL, Japan). Alive, apoptotic and total dead cells were quantitated by flow cytometry using a FACS calibur cytometer (Becton Dickinson).
# [8] = test system: LS-1034; assay: Proliferation assay, LS-1034 cells; type: cell-based, human
# Text: as §1, §4, §2, §3
# [9] = test system: CT-26; assay: Proliferation assay, CT-26 cells; type: cell-based, murine
# Text: as §1, §4, §2, §3
# [10] = test system: MES SA; assay: Proliferation assay, MES SA cells; type: cell-based, human
# Text: as §1, §4, §2, §3
# [11] = test system: HT-29; assay: Proliferation assay, HT-29 cells; type: cell-based, human
# [12] = test system: BXPC-3; assay: Proliferation assay, BXPC-3 cells; type: cell-based, human
# Text: as §1, §4, §2, §3
# [13] = test system: HT-29 human colon carcinoma; assay: Xenograft flank colon carcinoma model, HT29; type: in vivo; conditions: nude mice
# Method: Xenograft flank colon carcinoma models: Eight weeks old, male CD1 nude mice (Harlan, Israel) were inoculated sc in the flanks with 5×10^6 HT29 or LS1034 cells. When tumor volume reached 50-100 mm^3, treatment with derivatives of chemotherapeutic agents according to the present embodiments commenced and was given by gavage five times a week for the duration of the experiment at the specified doses. Tumor volume (determined by caliper) and body weights were measured twice weekly. Tumor volume was measured (mm) using the formula for an ellipsoid sphere: Length×Width^2/2=Volume (mm)^3 This commonly used formula was also used to calculate tumor weight, assuming unit density (1 mm^3=1 mg). Serum PSA or CEA: […] At the end of the experiment blood samples were drawn from the eyes of mice (anesthetized slightly by inhalation of ether) or from the hearts of sacrificed animals.
# [14] = test system: 3LLD122 Lewis lung carcinoma; assay: Metastatic lung model (Lewis lung carcinoma); type: in vivo, mice
# Method: Metastatic lung model: Female C57/BL mice, 6-10 weeks (Harlan, Israel) were […] implanted (in the tail vein) with 5×10^5 3LLD122 cells. Treatment with a derivative of a chemotherapeutic agent according to the present embodiments, for five days per week, commenced 24 hours post cell implantation. After 21 days the animals were sacrificed and their lung lesions were scored under an illuminated magnifying glass.
# [15] = test system: human colon carcinoma cells (LS1034); assay: Xenograft flank colon carcinoma model, LS1034; type: in vivo; conditions: nude mice sc implanted with LS1034
# Method: Xenograft flank colon carcinoma models: Eight weeks old, male CD1 nude mice (Harlan, Israel) were inoculated sc in the flanks with 5×10^6 HT29 or LS1034 cells. When tumor volume reached 50-100 mm^3, treatment with derivatives of chemotherapeutic agents according to the present embodiments commenced and was given by gavage five times a week for the duration of the experiment at the specified doses. Tumor volume (determined by caliper) and body weights were measured twice weekly. Tumor volume was measured (mm) using the formula for an ellipsoid sphere: Length×Width^2/2=Volume (mm)^3
# Survival was estimated by the Kaplan-Meier curves, and the difference in survival between the groups was analyzed by Wilcoxon's test and using a log-rank test chi-square (JMP 5.0.1.2, Chicago, Ill.).
# [16] = test system: prostate carcinoma cells 22RV; assay: Viability of prostate carcinoma cells 22RV; type: cell-based, human
# Method: as §5
# as §2, with “After 3 days, the cells were rinsed with PBS, and fixed with ethanol (70%) for 30 minutes.” left out, “MTT solution (10 ml of 5 mg/ml MTT (Sigma) in PBS) was added, and the plate was incubated for 3 hours. Formazan crystals were dissolved with 140 ml of 0.04 HCl-isopropanol.” left out
# as §6, with “The cells were thereafter collected and double-stained with annexin V-FITC and propidium iodide, according to the manufacturer's instructions (MBL, Japan).” left out
SMILES,maximal cell killing achieved [1] [%],IC50 ([2]; Homo sapiens) [µM],IC90 ([2]; Homo sapiens) [µM],IC50 ([2]; + SC 500 μM) [µM],IC90 ([2]; + SC 500 μM) [µM],IC50 [5] [µM],IC90 [5] [µM],reduction of cell killing by co-treatment with semicarbazide [6],effect on cancer cell viability (% of control) [7],"IC90 ([8]; Homo sapiens, LS-1034) [µM]","IC50 ([8]; Homo sapiens, LS-1034, LS-1034) [µM]","IC90 ([8]; LS-1034, + SC 500 μM) [µM]","IC90 ([9]; CT-26, + SC 500 μM) [µM]","IC50 ([9]; Mus musculus, CT26, CT-26) [µM]","IC90 ([9]; Mus musculus, CT26, CT-26) [µM]",IC50 ([10]; + SC 500 μM) [µM],IC90 ([10]; + SC 500 μM) [µM],IC50 ([10]; Homo sapiens) [µM],IC90 ([10]; Homo sapiens) [µM],"IC90 ([11]; HT-29, + SC 500 μM) [µM]",also measured
"CCCC(=O)OCn1c(=O)c(F)cn(C2CCCO2)c1=O [AN-420, 5-fluoro-2,3-dihydro-3-((R)-tetrahydrofuran-2-yl)-2,6-dioxopyrimidin-1(6H)-yl)methyl butyrate]",100,54 ± 5,95 ± 8,115 ± 29,312 ± 116,46 ± 3,149 ± 19,substantially reduced the cell killing,significantly more effective than tegafur,79 ± 23,42 ± 7,105 ± 29,94 ± 30,27 ± 4,76 ± 14,92 ± 14,214 ± 80,79 ± 22,177 ± 77,138 ± 30,"histone acetylation in treated cells [3]: increase of histone acetylation; fold more potent than tegafur, based on IC90 values [4]: ≥ 10 fold; IC50 ([8]; LS-1034, + SC 500 μM): 52 ± 8 µM; IC50 ([9]; CT-26, + SC 500 μM): 34 ± 10 µM; IC50 ([11]; HT-29, + SC (semicarbazide) 500 μM): 51 ± 5 µM; IC90 ([11]; Homo sapiens, HT-29): 84 ± 21 µM; IC50 ([11]; Homo sapiens, HT-29, HT-29): 35 ± 5 µM; IC50 ([12]; + SC 500 μM): 88 ± 6 µM; IC90 ([12]; + SC 500 μM): 280 ± 36 µM; IC50 ([12]; Homo sapiens): 74 ± 4 µM; IC90 ([12]; Homo sapiens): 141 ± 5 µM"
"O=c1c(F)cn([C@H]2CCCO2)c(=O)n1CO [AN-436, 5-fluoro-1-((R)-tetrahydrofuran-2-yl)-3-(hydroxymethyl)pyrimidine-2,4(1H,3H)-dione]",100,63 ± 4,101 ± 2,203 ± 75,356 ± 144,96 ± 9,219 ± 25,up to 3.5 folds,,153 ± 16,84 ± 8,252 ± 30,296 ± 28,99 ± 5,170 ± 9,182 ± 18,456 ± 189,71 ± 12,127 ± 19,303 ± 7,"CEA level in serum [13]: reduced the level significantly; tumor growth inhibition ([13]; P<<0.001): substantially inhibited tumor growth; inhibitory effect on tumor growth compared with tegafur ([13]; p<0.05): significantly higher than the parent compound; fold more potent than tegafur, based on IC50 values [4]: ≥ 2.5 fold; IC50 ([8]; Homo sapiens, LS-1034, LS-1034, + SC 500 μM): 132 ± 7 µM; antimetastatic activity (number of lung lesions) [14]: significantly evident; IC50 ([9]; Mus musculus, CT26, CT-26, + SC 500 μM): 132 ± 26 µM; survival after 82 days [15]: 75%; IC90 ([11]; Homo sapiens, HT-29): 115 ± 7 µM; IC50 ([11]; Homo sapiens, HT-29, HT-29): 67 ± 2 µM; IC50 ([11]; Homo sapiens, HT-29, HT-29, + SC (semicarbazide) 500 μM): 164 ± 12 µM; IC50 ([12]; + SC 500 μM): 160 ± 17 µM; IC90 ([12]; + SC 500 μM): 460 ± 78 µM; IC50 ([12]; Homo sapiens): 81 ± 9 µM; IC90 ([12]; Homo sapiens): 191 ± 47 µM"
"CCCC(=O)OCN1C(=O)CCC(N2C(=O)c3ccccc3C2=O)C1=O (stereo not drawn) [AN-438, 2-(1-butroyloxymethyl-2,6-dioxopiperidin-3-yl)isoindoline-1,3-dione]",,,,,,,,,,,,,,,,,,,,,"reduction of viability compared with thalidomide ([16]; prostate carcinoma cells 22RV): significantly more effective in reducing the viability; effect on viability on addition of semicarbazide ([16]; prostate carcinoma cells, 0.5 mM semicarbazide): abrogated the effect; reduction of viability compared with thalidomide ([11]; human colon cells HT-29): significantly more effective in reducing the viability"
"CCCC(=O)OCn1c(=O)cc[nH]c1=O [AN-439, (2,3-Dihydro-2,6-dioxopyrimidin-1(6H)-yl)methyl butyrate]",,,,,,,,,reduced cell viability in a dose dependent manner,,,,,,,,,,,,
